Source: ChEMBL document CHEMBL2157907, “Optimization of anti-Trypanosoma cruzi oxadiazoles leads to identification of compounds with efficacy in infected mice” (Bioorg Med Chem, 2012)
Active and inactive are the calls of the source. The calls are words filed in the database; no cut-off is given here.

What was measured:
Trypanosoma cruzi [1] = assay: Antitrypanosomal activity against epimastigotes of Trypanosoma cruzi Y after 5 days; format: functional, organism-based; details: 120 h
Cruzipain = Cruzipain (Trypanosoma cruzi, UniProt P25779); assay: Inhibition of Trypanosoma cruzi cruzain using Z-Phe-Arg-aminomethylcoumarin as substrate after 10 mins
Cruzipain, sequence (P25779 whole entry): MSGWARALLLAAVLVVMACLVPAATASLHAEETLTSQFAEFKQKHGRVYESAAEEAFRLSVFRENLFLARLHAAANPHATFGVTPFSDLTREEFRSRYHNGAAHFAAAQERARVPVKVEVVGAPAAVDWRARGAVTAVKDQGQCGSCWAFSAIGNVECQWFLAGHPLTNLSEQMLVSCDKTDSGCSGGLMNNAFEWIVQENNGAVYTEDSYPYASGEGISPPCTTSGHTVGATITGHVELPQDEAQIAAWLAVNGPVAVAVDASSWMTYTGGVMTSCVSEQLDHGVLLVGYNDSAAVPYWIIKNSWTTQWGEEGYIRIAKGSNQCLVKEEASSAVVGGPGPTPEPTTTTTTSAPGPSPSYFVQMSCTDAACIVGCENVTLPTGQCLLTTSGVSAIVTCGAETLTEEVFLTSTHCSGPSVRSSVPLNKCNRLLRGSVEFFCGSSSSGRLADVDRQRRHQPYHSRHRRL

[2] = molecular target: Cruzipain (Trypanosoma cruzi) (UniProt P25779); assay: Inhibition of Trypanosoma cruzi cruzain using Z-Phe-Arg-aminomethylcoumarin as substrate at 100 uM after 10 mins
Cruzipain (Trypanosoma cruzi), sequence (P25779 123-467 limits assumed): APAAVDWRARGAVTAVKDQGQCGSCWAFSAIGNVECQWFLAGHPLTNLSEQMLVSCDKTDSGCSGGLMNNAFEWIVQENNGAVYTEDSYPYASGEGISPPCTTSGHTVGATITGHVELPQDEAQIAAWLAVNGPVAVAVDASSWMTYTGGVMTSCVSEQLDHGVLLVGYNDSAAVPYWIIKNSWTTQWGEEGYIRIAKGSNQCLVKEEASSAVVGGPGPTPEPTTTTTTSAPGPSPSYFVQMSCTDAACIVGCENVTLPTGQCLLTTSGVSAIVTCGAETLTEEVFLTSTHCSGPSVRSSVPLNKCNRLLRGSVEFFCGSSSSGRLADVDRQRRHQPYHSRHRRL

Trypanosoma cruzi [3] = assay: Antitrypanosomal activity against trypomastigotes of Trypanosoma cruzi Y infected in BALB/c mouse peritoneal exudate macrophages assessed as reduction of parasite level at 10 ug/ml after 4 days; format: functional, organism-based
Trypanosoma cruzi [4] = assay: Antitrypanosomal activity against trypomastigotes of Trypanosoma cruzi Y infected in rhesus monkey LLC-MK2 cells assessed parasite viability after 24 hrs; format: functional, organism-based; details: LLC-MK2, 24 h
[5] = Cytotoxicity against BALB/c mouse splenocytes after 24 hrs by [3H]-thymidine incorporation assay; format: cell-based, Splenocyte; details: read-out: LC50
Mus musculus [6] = assay: Toxicity in BALB/c mouse assessed as serum ALB level at 50 mg/kg, po after 24 hrs; format: organism-based; set-up: dose 50 mg/kg, route oral; details: in vivo
Mus musculus [7] = assay: Toxicity in BALB/c mouse assessed as serum ALB level at 100 mg/kg, po after 24 hrs; format: organism-based; set-up: dose 100 mg/kg, route oral; details: in vivo
Mus musculus [8] = assay: Toxicity in BALB/c mouse assessed as serum globulin level at 100 mg/kg, po after 24 hrs; format: organism-based; set-up: dose 100 mg/kg, route oral; details: in vivo
Mus musculus [9] = assay: Toxicity in BALB/c mouse assessed as serum GGT level at 100 mg/kg, po after 24 hrs; format: organism-based; set-up: dose 100 mg/kg, route oral; details: in vivo
Mus musculus [10] = assay: Toxicity in BALB/c mouse assessed as serum uric acid level at 100 mg/kg, po after 24 hrs; format: organism-based; set-up: dose 100 mg/kg, route oral; details: in vivo
Mus musculus [11] = assay: Toxicity in BALB/c mouse assessed as serum BUN level at 25 mg/kg, po after 24 hrs; format: organism-based; set-up: dose 25 mg/kg, route oral; details: in vivo
Mus musculus [12] = assay: Toxicity in BALB/c mouse assessed as serum globulin level at 25 mg/kg, po after 24 hrs; format: organism-based; set-up: dose 25 mg/kg, route oral; details: in vivo
Mus musculus [13] = assay: Toxicity in BALB/c mouse assessed as serum total proteins level at 50 mg/kg, po after 24 hrs; format: organism-based; set-up: dose 50 mg/kg, route oral; details: in vivo
Trypanosoma cruzi [14] = assay: Induction of kinetoplast enlargement in trypomastigotes of Trypanosoma cruzi Y at 3.5 uM after 24 hrs by […] electron microscopic analysis; format: functional, organism-based
Mus musculus [15] = assay: Toxicity in BALB/c mouse assessed as mortality at 25 to 100 mg/kg, po; format: organism-based; set-up: dose 25-100 mg/kg, route oral; details: in vivo
Mus musculus [16] = assay: Toxicity in BALB/c mouse assessed as serum ALT level at 25 mg/kg, po after 24 hrs; format: organism-based; set-up: dose 25 mg/kg, route oral; details: in vivo
Mus musculus [17] = assay: Toxicity in BALB/c mouse assessed as serum AML level at 50 mg/kg, po after 24 hrs; format: organism-based; set-up: dose 50 mg/kg, route oral; details: in vivo
Trypanosoma cruzi [18] = assay: Antitrypanosomal activity against trypomastigotes of Trypanosoma cruzi Y infected in BALB/c mouse assessed as reduction of parasite level in blood at 50 mg/kg, po administered after 5 days of postinfection qd for 5 days; format: functional, organism-based; set-up: dose 50 mg/kg
Trypanosoma cruzi [19] = assay: Induction of mitochondria degeneration in trypomastigotes of Trypanosoma cruzi Y at 3.5 uM after 24 hrs by […] electron microscopic analysis; format: functional, organism-based
Mus musculus [20] = assay: Toxicity in BALB/c mouse assessed as serum cholesterol level at 25 mg/kg, po after 24 hrs; format: organism-based; set-up: dose 25 mg/kg, route oral; details: in vivo
Mus musculus [21] = assay: Toxicity in BALB/c mouse assessed as serum cholesterol level at 50 mg/kg, po after 24 hrs; format: organism-based; set-up: dose 50 mg/kg, route oral; details: in vivo
Mus musculus [22] = assay: Toxicity in BALB/c mouse assessed as serum total proteins level at 100 mg/kg, po after 24 hrs; format: organism-based; set-up: dose 100 mg/kg, route oral; details: in vivo
Mus musculus [23] = assay: Toxicity in BALB/c mouse assessed as serum AML level at 100 mg/kg, po after 24 hrs; format: organism-based; set-up: dose 100 mg/kg, route oral; details: in vivo
Mus musculus [24] = assay: Toxicity in BALB/c mouse assessed as serum globulin level at 50 mg/kg, po after 24 hrs; format: organism-based; set-up: dose 50 mg/kg, route oral; details: in vivo
Trypanosoma cruzi [25] = assay: Induction of golgi apparatus degeneration in trypomastigotes of Trypanosoma cruzi Y at 3.5 uM after 24 hrs by […] electron microscopic analysis; format: functional, organism-based
Mus musculus [26] = assay: Toxicity in BALB/c mouse assessed as serum cholesterol level at 100 mg/kg, po after 24 hrs; format: organism-based; set-up: dose 100 mg/kg, route oral; details: in vivo
Mus musculus [27] = assay: Toxicity in BALB/c mouse assessed as serum Ca2+ level at 50 mg/kg, po after 24 hrs; format: organism-based; set-up: dose 50 mg/kg, route oral; details: in vivo
Mus musculus [28] = assay: Toxicity in BALB/c mouse assessed as serum Ca2+ level at 100 mg/kg, po after 24 hrs; format: organism-based; set-up: dose 100 mg/kg, route oral; details: in vivo
Mus musculus [29] = assay: Toxicity in BALB/c mouse assessed as serum alkaline phosphatase level at 100 mg/kg, po after 24 hrs; format: organism-based; set-up: dose 100 mg/kg, route oral; details: in vivo
Mus musculus [30] = assay: Toxicity in BALB/c mouse assessed as serum alkaline phosphatase level at 25 mg/kg, po after 24 hrs; format: organism-based; set-up: dose 25 mg/kg, route oral; details: in vivo
[31] = Therapeutic index, ratio of LC50 for BALB/c mouse splenocytes to IC50 for Trypanosoma cruzi Y; details: read-out: Ratio LC50/IC50
Trypanosoma cruzi [32] = assay: Induction of endoplasmic reticulum degeneration in trypomastigotes of Trypanosoma cruzi Y at 3.5 uM after 24 hrs by […] electron microscopic analysis; format: functional, organism-based
Trypanosoma cruzi [33] = assay: Induction of ultrastructural changes in trypomastigotes of Trypanosoma cruzi Y assessed as plasma membrane protrusions at 10 uM after 24 hrs by scanning electron microscopic analysis; format: functional
Mus musculus [34] = assay: Toxicity in BALB/c mouse assessed as serum ALT level at 100 mg/kg, po after 24 hrs; format: organism-based; set-up: dose 100 mg/kg, route oral; details: in vivo
Mus musculus [35] = assay: Toxicity in BALB/c mouse assessed as serum uric acid level at 25 mg/kg, po after 24 hrs; format: organism-based; set-up: dose 25 mg/kg, route oral; details: in vivo
Mus musculus [36] = assay: Toxicity in BALB/c mouse assessed as serum GGT level at 50 mg/kg, po after 24 hrs; format: organism-based; set-up: dose 50 mg/kg, route oral; details: in vivo
Trypanosoma cruzi [37] = assay: Antitrypanosomal activity against trypomastigotes of Trypanosoma cruzi Y in BALB/c mouse peritoneal exudate macrophages assessed as reduction of parasite infection to cells at 10 ug/ml treated simultaneously with parasite measured after 2 hrs; format: functional, organism-based
Mus musculus [38] = assay: Toxicity in BALB/c mouse assessed as serum ALB level at 25 mg/kg, po after 24 hrs; format: organism-based; set-up: dose 25 mg/kg, route oral; details: in vivo
Mus musculus [39] = assay: Toxicity in BALB/c mouse assessed as serum AML level at 25 mg/kg, po after 24 hrs; format: organism-based; set-up: dose 25 mg/kg, route oral; details: in vivo
Mus musculus [40] = assay: Toxicity in BALB/c mouse assessed as serum GGT level at 25 mg/kg, po after 24 hrs; format: organism-based; set-up: dose 25 mg/kg, route oral; details: in vivo
Mus musculus [41] = assay: Toxicity in BALB/c mouse assessed as serum total proteins level at 25 mg/kg, po after 24 hrs; format: organism-based; set-up: dose 25 mg/kg, route oral; details: in vivo
Mus musculus [42] = assay: Toxicity in BALB/c mouse assessed as serum Ca2+ level at 25 mg/kg, po after 24 hrs; format: organism-based; set-up: dose 25 mg/kg, route oral; details: in vivo
Mus musculus [43] = assay: Toxicity in BALB/c mouse assessed as serum uric acid level at 50 mg/kg, po after 24 hrs; format: organism-based; set-up: dose 50 mg/kg, route oral; details: in vivo
Mus musculus [44] = assay: Toxicity in BALB/c mouse assessed as serum alkaline phosphatase level at 50 mg/kg, po after 24 hrs; format: organism-based; set-up: dose 50 mg/kg, route oral; details: in vivo
Mus musculus [45] = assay: Toxicity in BALB/c mouse assessed as serum BUN level at 100 mg/kg, po after 24 hrs; format: organism-based; set-up: dose 100 mg/kg, route oral; details: in vivo
Mus musculus [46] = assay: Toxicity in BALB/c mouse assessed as serum ALT level at 50 mg/kg, po after 24 hrs; format: organism-based; set-up: dose 50 mg/kg, route oral; details: in vivo
Mus musculus [47] = assay: Toxicity in BALB/c mouse assessed as serum BUN level at 50 mg/kg, po after 24 hrs; format: organism-based; set-up: dose 50 mg/kg, route oral; details: in vivo

O=C(N/N=C/c1ccc2c(c1)OCO2)c1nc(-c2ccc(Br)cc2)no1
IC50 (Trypanosoma cruzi [1]): 14 µM
IC50 (Cruzipain): 0.03 µM
inhibition [2]: 95%
Activity (Trypanosoma cruzi [3]): inactive
IC50 (Trypanosoma cruzi [4]): 13.4 µM
CC50 at 24 h [5]: > 100 µg/mL

COc1cc(/C=N/NC(=O)c2nc(-c3ccc(F)cc3)no2)ccc1O
inhibition [2]: 63%
CC50 at 24 h [5]: > 100 µg/mL

O=C(N/N=C/c1ccc2c(c1)OCO2)c1nc(-c2ccc(Cl)cc2)no1
Activity (Mus musculus [6]): 2.67 g/dL
Activity (Mus musculus [7]): 2.36 g/dL
Activity (Mus musculus [8]): 2.73 g/dL
Activity (Mus musculus [9]): 1 U/L
Activity (Mus musculus [10]): 2 mg/dL
Activity (Mus musculus [11]): 17.8 mg/dL
Activity (Mus musculus [12]): 2.4 g/dL
Activity (Mus musculus [13]): 4.86 g/dL
IC50 (Trypanosoma cruzi [1]): 7.5 µM
Activity (Trypanosoma cruzi [14]): Active
Activity (Mus musculus [15]): Non-toxic
Activity (Mus musculus [16]): 32.5 U/L
Activity (Mus musculus [17]): 1268 U/L
Activity (Trypanosoma cruzi [18]): Active
Activity (Trypanosoma cruzi [19]): Active
Activity (Mus musculus [20]): 53 mg/dL
Activity (Mus musculus [21]): 59.5 mg/dL
Activity (Mus musculus [22]): 5.1 g/dL
inhibition [2]: 42%
Activity (Mus musculus [23]): 1170 U/L
Activity (Mus musculus [24]): 2.16 g/dL
Activity (Trypanosoma cruzi [25]): Active
Activity (Mus musculus [26]): 54.5 mg/dL
Activity (Mus musculus [27]): 9.45 mg/dL
Activity (Mus musculus [28]): 9.56 mg/dL
Activity (Mus musculus [29]): 155.5 U/L
Activity (Mus musculus [30]): 148 U/L
selectivity ratio [31]: 50
Activity (Trypanosoma cruzi [32]): Active
Activity (Trypanosoma cruzi [33]): 80%
Activity (Mus musculus [34]): 29.67 U/L
Activity (Mus musculus [35]): 1.65 mg/dL
Activity (Mus musculus [36]): 0.67 U/L
Activity (Trypanosoma cruzi [37]): Active
Activity (Mus musculus [38]): 2.35 g/dL
Activity (Trypanosoma cruzi [3]): Active
Activity (Mus musculus [39]): 1183 U/L
IC50 (Trypanosoma cruzi [4]): 3.5 µM
Activity (Mus musculus [40]): 1 U/L
Activity (Mus musculus [41]): 4.75 g/dL
Activity (Mus musculus [42]): 9.45 mg/dL
Activity (Mus musculus [43]): 1.46 mg/dL
Activity (Mus musculus [44]): 142.7 U/L
Activity (Mus musculus [45]): 13.7 mg/dL
Activity (Mus musculus [46]): 36 U/L
CC50 at 24 h [5]: > 100 µg/mL
Activity (Mus musculus [47]): 18.07 mg/dL

Cc1ccc(-c2noc(C(=O)N/N=C/c3ccc4c(c3)OCO4)n2)cc1
inhibition [2]: 49%
CC50 at 24 h [5]: > 100 µg/mL
